# Source: patent publication EP0180309B2, “Improved disinfecting and preserving solutions for contact lenses and methods of use” (priority 1984, dated 1986)
# System: L-929 mouse fibroblast cells
# Format: cell-based
# Conditions: 10 ppm
# Procedure: Comparative studies are conducted to evaluate the cytotoxicity of individual aqueous lens disinfecting and preservative solutions containing PHMB, benzalkonium chloride and chlorhexidine. The studies utilize the Agar Overlay Assay Technique published in the Journal of Pharmaceutical Sciences, Vol. 54 (1965) pp 1545-1547 by W. L. Guess et al. The technique utilized is similar to the Zone of Inhibition Method of Otten et al (Example VII), however, when the lenses are removed from the preservative solutions they are only rinsed with isotonic saline solution to remove residual preservative. The lenses are then placed on L-929 mouse fibroblast cells to ascertain the presence of any cytotoxic response or cell inflammation which is noted by a lysing of the cells.
smiles,measurement,value
"[H]/N=C(\N/C(=N/[H])NCCCCCCNC(=N)NC(=N)Nc1ccc(Cl)cc1)Nc1ccc(Cl)cc1 [Chlorhexidine, chlorhexidine gluconate]",Percent Cells Lysed,0/0
same,Width of Decolorized Zone,0/0
